Measurements from ChEMBL document CHEMBL1201862, “PubChem BioAssay data set” (2004).
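48-hour exposure; five concentrations; linearly interpolated endpoints. Abbreviation: GI50, concentration required for 50% inhibition of growth.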 Calls of active or inactive are those of the source. Cut-off read from the data, not from the text of the source: active = GI50 up to about 1.1 µM and inactive = higher.

How the values were obtained:
Experiment in all cases: NCI tumour cell line growth inhibition, 48 h
SK-MEL-2 = system: SK-MEL-2
SNB-78 = system: SNB-78
EKVX = system: EKVX
HCT-15 = system: HCT-15
SK-OV-3 = system: SK-OV-3
HOP-92 = system: HOP-92
UACC-257 = system: UACC-257
LOX IMVI = system: LOX IMVI
SK-MEL-28 = system: SK-MEL-28
Malme-3M = system: Malme-3M
OVCAR-3 = system: OVCAR-3
IGROV-1 = system: IGROV-1
SW-620 = system: SW-620
HOP-18 = system: HOP-18
NCI-H226 = system: NCI-H226
SF-539 = system: SF-539
CCRF-CEM = system: CCRF-CEM
DMS-273 = system: DMS-273
RXF 631 = system: RXF 631
XF498 = system: XF498

Measured: GI50

COc1ccc(C2c3cc4c(cc3OC(O)(CO)C2C(=O)O)OCO4)cc1.COc1ccc(C2c3cc4c(cc3OC3(O)COC(=O)C23)OCO4)cc1 (stereo not given)
17.7 µM: HCT-15
active: XF498 0.536 µM
inactive: SK-MEL-2 25.9 µM | SNB-78 23.2 µM | EKVX 31.4 µM | SK-OV-3 40.1 µM | HOP-92 21 µM | UACC-257 21.5 µM | LOX IMVI 16.5 µM | SK-MEL-28 25.2 µM | Malme-3M 26.9 µM | OVCAR-3 22.4 µM | IGROV-1 20.4 µM | SW-620 18.7 µM | HOP-18 50.4 µM | NCI-H226 22.5 µM | SF-539 20.7 µM | CCRF-CEM 18.7 µM | DMS-273 4.14 µM | RXF 631 19.5 µM
